Data on nine compounds can be found in patent US20230374038A1, “MODULATORS OF CYSTIC FIBROSIS TRANSMEMBRANE CONDUCTANCE REGULATOR” (VERTEX PHARMACEUTICALS INCORPORATED, priority 2020, published 2023).

Read-outs that look alike come from different tables or passages of the source.

Data set [1] addresses T1, CFTR (Homo sapiens, UniProt P13569, DEL508-508).
T1 construct: endogenous in cells; host or cells: primary human bronchial epithelial cells, F508del/MF genotype
The experiment in a line: HBE Assay: Ussing chamber assay of CFTR-mediated short-circuit currents in F508del/MF-HBE cells with 1 μM Ivacaftor. The following applies: with 1 μM Ivacaftor, 18-24 hours, 20% human serum. The format is cell-based. The gist of the method:
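F508del/MF-HBE cells at air-liquid interface >14 days were incubated 18-24 h at 37° C with corrector (concentration range or fixed 10 μM) plus 1 μM Ivacaftor in 20% human serum, compounds kept throughout. Ussing chamber, Vhold=0 mV, 37° C, apical amiloride 30 μM; ISC (μA/cm^2) from peak 20 μM forskolin response to steady state after CFTR inhibitor cocktail.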

For data set [2], the target named is T2, CFTR (Homo sapiens, UniProt P13569). The data set can be described thus: Membrane Potential Dye, Enteroid Assay A. The format is cell-based. The note with it: for EC50: read-out: Ent. A EC50. The protocol: Base medium (ADF+++) consisted of Advanced DMEM/Ham's F12, 2 mM Glutamax, 10 mM HEPES, 1 µg/mL penicillin/streptomycin.
Intestinal enteroid maintenance medium (IEMM) consisted of ADF+++, 1× B27 supplement, 1× N2 supplement, 1.25 mM N-acetyl cysteine, 10 mM Nicotinamide, 50 ng/mL hEGF, 10 nM Gastrin, 1 pg/mL hR-spondin-1, 100 ng/mL hNoggin, TGF-b type 1 inhibitor A-83-01, 100 μg/mL Primocin, […] P38 MAPK inhibitor SB202190.
Bath 1 Buffer consisted of 1 mM MgCl2, 160 mM NaCl, 4.5 mM KCl, 10 mM HEPES, 10 mM Glucose, 2 mM CaCl2).
Chloride Free Buffer consisted of 1 mM Magnesium Gluconate, 2 mM Calcium Gluconate, 4.5 mM Potassium Gluconate, 160 mM Sodium Gluconate, 10 mM HEPES, 10 mM Glucose.
Bath1 Dye Solution consisted of Bath 1 Buffer, 0.04% Pluronic F127, […] Methyl Oxonol, 30 μM CaCCinh-A01, 30 μM Chicago Sky Blue.
Chloride Free Dye Solution consisted of Chloride Free Buffer, 0.04% Pluronic F127, 20 μM Methyl Oxonol, 30 μM CaCCinh-A01, 30 μM Chicago Sky Blue.
Chloride Free Dye Stimulation Solution consisted of Chloride Free Dye Solution, 10 μM forskolin, 100 μM IBMX, and 300 nM Compound III.
Human intestinal epithelial enteroid cells were obtained from the Hubrecht Institute for Developmental Biology and Stem Cell Research, Utrecht, The Netherlands and expanded in T-Flasks as previously described (Dekkers J F, Wiegerinck C L, de Jonge H R, Bronsveld I, Janssens H M, de Winter-de Groot K M, Brandsma A M, de Jong N W M, Bijvelds M J C, Scholte B J, Nieuwenhuis E E S, van den Brink S, Clevers H, van der Ent C K, Middendorp S and M Beekman J M. A functional CFTR assay using primary cystic fibrosis intestinal organoids. Nat Med. 2013 July; 19(7):939-45.).
Cells were recovered in cell recovery solution, collected by centrifugation at 650 rpm for 5 min at 4° C., resuspended in TryPLE and incubated for 5 min at 37° C. Cells were then collected by centrifugation at 650 rpm for 5 min at 4° C. and resuspended in IEMM containing 10 μM ROCK inhibitor (RI). The cell suspension was passed through a 40 μm cell strainer and resuspended at 1×10^6 cells/mL in IEMM containing 10 μM RI. Cells were seeded at 5000 cells/well into multi-well plates and incubated for overnight at 37° C., 95% humidity and 5% CO2 prior to assay.
Enteroid cells were incubated with test compound in IEMM for 18-24 hours at 37° C., 95% humidity and 5% CO2. […] Briefly, cells were washed 5 times in Bath 1 Buffer. Bath 1 Dye Solution was added, and the cells were incubated for 25 min at room temperature. Following dye incubation, cells were washed 3 times in Chloride Free Dye Solution. Chloride transport was initiated by addition of Chloride Free Dye Stimulation Solution and the fluorescence signal was read for 15 min. […] Chloride transport was then expressed as a percentage of the chloride transport following treatment with 3 μM (S)—N-((6-aminopyridin-2-yl)sulfonyl)-6-(3-fluoro-5-isobutoxyphenyl)-2-(2,2,4-trimethylpyrrolidin-1-yl)nicotinamide, 3 μM (R)-1-(2,2-difluorobenzo[d][1,3]dioxol-5-yl)-N-(1-(2,3-dihydroxypropyl)-6-fluoro-2-(1-hydroxy-2-methylpropan-2-yl)-1H-indol-5-yl)cyclopropanecarboxamide and 300 nM acute N-[2,4-bis(1,1-dimethylethyl)-5-hydroxyphenyl]-1,4-dihydro-4-oxoquinoline-3-carboxamide triple combination control (% Activity).

Data set [3] concerns the target T2, CFTR. The experiment in a line: Membrane Potential Dye, Enteroid Assay B. The note with it: for EC50: read-out: Ent. B EC50. The format is cell-based. The gist of the method: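 Human intestinal enteroids seeded at 5000 cells/well, treated with compound 18-24 h at 37 °C, then loaded 25 min with methyl oxonol membrane-potential dye plus CaCC blockers. Chloride transport started in chloride-free buffer with 10 μM forskolin, 100 μM IBMX and 300 nM Compound III, read 15 min; expressed as % of triple-combination control.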

T2 sequence (P13569 with tags, fused parts or gaps DEL508-508): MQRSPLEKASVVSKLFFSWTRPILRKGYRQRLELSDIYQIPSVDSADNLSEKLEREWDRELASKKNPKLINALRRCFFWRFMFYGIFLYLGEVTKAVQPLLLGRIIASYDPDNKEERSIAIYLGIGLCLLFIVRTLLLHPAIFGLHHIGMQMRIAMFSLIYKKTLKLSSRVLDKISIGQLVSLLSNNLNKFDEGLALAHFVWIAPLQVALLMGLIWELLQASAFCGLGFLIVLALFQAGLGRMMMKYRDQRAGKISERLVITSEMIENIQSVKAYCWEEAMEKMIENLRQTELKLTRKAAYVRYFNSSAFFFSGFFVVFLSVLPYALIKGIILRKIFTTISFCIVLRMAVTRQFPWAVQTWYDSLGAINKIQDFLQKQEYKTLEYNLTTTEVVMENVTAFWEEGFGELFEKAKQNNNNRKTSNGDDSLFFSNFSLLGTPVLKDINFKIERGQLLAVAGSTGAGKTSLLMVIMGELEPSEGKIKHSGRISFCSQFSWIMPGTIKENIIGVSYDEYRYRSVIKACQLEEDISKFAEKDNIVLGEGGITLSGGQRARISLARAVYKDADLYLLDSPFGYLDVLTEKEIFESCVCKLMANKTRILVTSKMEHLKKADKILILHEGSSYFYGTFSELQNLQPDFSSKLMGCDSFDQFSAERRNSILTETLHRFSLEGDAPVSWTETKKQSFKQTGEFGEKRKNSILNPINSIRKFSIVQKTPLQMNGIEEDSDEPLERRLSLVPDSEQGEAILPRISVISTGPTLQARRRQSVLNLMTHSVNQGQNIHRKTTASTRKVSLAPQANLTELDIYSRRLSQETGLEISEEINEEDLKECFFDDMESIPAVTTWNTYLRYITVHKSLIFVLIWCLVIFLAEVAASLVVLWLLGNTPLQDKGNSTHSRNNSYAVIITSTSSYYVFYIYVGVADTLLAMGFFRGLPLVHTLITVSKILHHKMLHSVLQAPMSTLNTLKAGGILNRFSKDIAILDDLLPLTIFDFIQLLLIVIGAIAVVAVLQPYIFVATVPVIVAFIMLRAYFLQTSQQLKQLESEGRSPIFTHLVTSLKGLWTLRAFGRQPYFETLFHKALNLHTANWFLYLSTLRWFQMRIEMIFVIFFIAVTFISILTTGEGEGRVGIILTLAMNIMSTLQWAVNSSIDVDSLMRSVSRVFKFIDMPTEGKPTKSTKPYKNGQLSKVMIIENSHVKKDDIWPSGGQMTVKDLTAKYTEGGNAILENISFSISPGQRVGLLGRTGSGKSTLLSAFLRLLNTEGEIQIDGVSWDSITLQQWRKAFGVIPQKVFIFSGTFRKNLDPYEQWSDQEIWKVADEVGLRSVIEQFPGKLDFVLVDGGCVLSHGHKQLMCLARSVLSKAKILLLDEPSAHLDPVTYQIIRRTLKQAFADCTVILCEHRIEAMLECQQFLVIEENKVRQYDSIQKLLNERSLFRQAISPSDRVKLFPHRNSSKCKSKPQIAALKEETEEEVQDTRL
T1 sequence (P13569 with tags, fused parts or gaps DEL508-508): as above

For orientation: EC50 means the concentration needed to bring the measured effect to its halfway point. As for `Cc1c2nc(nc1-c1ccccc1C(C)C)NS(=O)(=O)c1cccc(c1)C(=O)N(Cc1ncc(N3CCOCC3)cn1)[C@H](CC(C)(C)C)CO2` [Compound 173, (11R)-11-(2,2-Dimethylpropyl)-7-methyl-12-{[5-(morpholin-4-yl)pyrimidin-2-yl]methyl}-6-[2-(propan-2-yl)phenyl]-9-oxa-2λ^6-thia-3,5,12,19-tetraazatricyclo[12.3.1.14,8]nonadeca-1(17),4(19),5,7,14(18),15-hexaene-2,2,13-trione], at CFTR [1], the EC50 is less than 1000 nM and the “HBE Max Activity” value is recorded as “+++ (+++ is >600%)”. Also, the ring closure, yield after HPLC (from Cc1c(OC[C@@H](CC(C)(C)C)NCc2ncc(N3CCOCC3)cn2)nc(NS(=O)(=O)c2cccc(C(=O)O)c2)nc1-c1ccccc1C(C)C, amide bond, 13-membered ring, CDMT/NMM, DMF, 57.0 mM, 19.0 h, 2 steps) was 18%.
On to `Cc1ccccc1-c1nc2nc(c1C(F)(F)F)OCC1CN(CCN1CCC1(C(F)(F)F)CC1)C(=O)c1cccc(c1)S(=O)(=O)N2` (stereo not drawn) [Compound 32, 12-(2-Methylphenyl)-13-(trifluoromethyl)-18-{2-[1-(trifluoromethyl)cyclopropyl]ethyl}-15-oxa-8λ^6-thia-1,9,11,18,22-pentaazatetracyclo[15.3.1.13,7.110,14]tricosa-3(23),4,6,10(22),11,13-hexaene-2,8,8-trione], for which, on CFTR [2], the “Ent. A Max Activity” value is “++ (++ is 30-60%)” and the EC50 lay in the range of 1000 to 3000 nM. For the same compound, the ring closure, yield after HPLC (from Cc1ccccc1-c1nc(NS(=O)(=O)c2cccc(C(=O)O)c2)nc(OCC2CNCCN2CCC2(C(F)(F)F)CC2)c1C(F)(F)F, amide bond, 14-membered ring, HATU/DIEA, DMF, 25.0 °C, 1.0 h, 3 steps) turned out to be 16%.
As to `Cc1ccccc1-c1nc2nc(c1C(C)(C)C)OCC1CN(CCN1CCC1(C(F)(F)F)CC1)C(=O)c1cccc(c1)S(=O)(=O)N2` (stereo not drawn) [Compound 33, 13-tert-Butyl-12-(2-methylphenyl)-18-{2-[1-(trifluoromethyl)cyclopropyl]ethyl}-15-oxa-8λ^6-thia-1,9,11,18,22-pentaazatetracyclo[15.3.1.13,7.110,14]tricosa-3(23),4,6,10(22),11,13-hexaene-2,8,8-trione], on CFTR [2], the “Ent. A Max Activity” value is recorded as “+++ (+++ is >60%)” and the EC50 lay within 1000 to 3000 nM. Also, for the setting “from Cc1ccccc1-c1nc(NS(=O)(=O)c2cccc(C(=O)O)c2)nc(OCC2CNCCN2CCC2(C(F)(F)F)CC2)c1C(C)(C)C, amide bond, 14-membered ring, HATU/DIEA, DMF, 25.0 °C, 1.0 h, 3 steps”, the ring closure, yield after HPLC is 8%.
With `Cc1cccc(C)c1-c1nc2nc(c1F)O[C@H](c1ccc(C(C)(C)C)cc1)[C@@H](C)NC(=O)c1cccc(c1)S(=O)(=O)N2` [Compound 167, (10R,11R)-10-(4-tert-Butylphenyl)-6-(2,6-dimethylphenyl)-7-fluoro-11-methyl-2,2-dioxo-9-oxa-2λ^6-thia-3,5,12,19-tetrazatricyclo[12.3.1.14,8]nonadeca-1(18),4(19),5,7,14,16-hexaen-13-one], on CFTR [3], the “Ent. B Max Activity” value was “+++ (+++ is >60%)” and the half-maximal effective concentration (EC50) is less than 1000 nM. The same compound displayed a ring closure, yield after HPLC (amide bond, 13-membered ring, NaOtBu then HATU, THF/DMF, 30.0 mM, 2 steps) of 30%.
`Cc1ccccc1-c1nc2nc(c1C(F)(F)F)OCC1CN(C)CCN1C(=O)c1cccc(c1)S(=O)(=O)N2` (stereo not drawn) [Compound 31, 6-Methyl-13-(2-methylphenyl)-12-(trifluoromethyl)-10-oxa-17λ^6-thia-3,6,14,16,23-pentaazatetracyclo[16.3.1.111,15.03,8]tricosa-1(22),11,13,15(23),18,20-hexaene-2,17,17-trione]: on CFTR [2], the “Ent. A Max Activity” value was “++ (++ is 30-60%)” and the half-maximal effective concentration (EC50) fell in the range of 3000 to 30000 nM. The same compound registered a ring closure, yield after HPLC (from Cc1ccccc1-c1nc(NS(=O)(=O)c2cccc(C(=O)N3CCN(C)CC3CO)c2)nc(Cl)c1C(F)(F)F, snar bond, 13-membered ring, NaH, NMP, 70.0 °C, 4.0 h, 2 steps) of 6%.
As to `Cc1cccc(C)c1-c1nc2nc(c1C)OC[C@@H](C)NC(=O)c1cccc(c1)S(=O)(=O)N2` [Compound 117, (11R)-6-(2,6-Dimethylphenyl)-7,11-dimethyl-9-oxa-2λ^6-thia-3,5,12,19-tetraazatricyclo[12.3.1.14,8]nonadeca-1(18),4,6,8(19),14,16-hexaene-2,2,13-trione], at CFTR [3], the “Ent. B Max Activity” value was “++ (++ is 30-60%)” and the EC50 lay in the range of 1000 to 3000 nM. The compound further showed a ring closure, yield after HPLC (from Cc1cccc(C)c1-c1nc(NS(=O)(=O)c2cccc(C(=O)O)c2)nc(OC[C@@H](C)N)c1C, amide bond, 13-membered ring, HATU/DIEA, DMF, 49.3 mM, 1.0 h) of 18%.
For `Cc1cccc(C)c1-c1nc2nc(c1C)OC[C@@H](CC(C)(C)C)N(Cc1ccc(N3CCOCC3)cn1)C(=O)c1cccc(c1)S(=O)(=O)N2` [Compound 49, (11R)-6-(2,6-Dimethylphenyl)-11-(2,2-dimethylpropyl)-7-methyl-12-{[5-(morpholin-4-yl)pyridin-2-yl]methyl}-9-oxa-2λ^6-thia-3,5,12,19-tetraazatricyclo[12.3.1.14,8]nonadeca-1(17),4(19),5,7,14(18),15-hexaene-2,2,13-trione], on CFTR [1], the concentration for a half-maximal effect (EC50) was less than 1000 nM and the “HBE Max Activity” value is listed as “+++ (+++ is >600%)”. The compound also yielded a ring closure, yield after HPLC (from Cc1cccc(C)c1-c1nc(NS(=O)(=O)c2cccc(C(=O)O)c2)nc(OC[C@@H](CC(C)(C)C)NCc2ccc(N3CCOCC3)cn2)c1C, amide bond, 13-membered ring, CDMT/NMM, DMF, 21.0 mM, 15.0 h, 2 steps) of 5%.
As for `Cc1cccc(C)c1-c1nc2nc(c1C)OC[C@@H](CC1(C(F)(F)F)CC1)N(C1CC3(CC3)C1)C(=O)c1cccc(c1)S(=O)(=O)N2` [Compound 50, (11R)-6-(2,6-Dimethylphenyl)-7-methyl-2,2-dioxo-12-spiro[2.3]hexan-5-yl-11-[[1-(trifluoromethyl)cyclopropyl]methyl]-9-oxa-2λ^6-thia-3,5,12,19-tetrazatricyclo[12.3.1.14,8]nonadeca-1(18),4(19),5,7,14,16-hexaen-13-one], at CFTR [3], the “Ent. B Max Activity” value is on record as “+++ (+++ is >60%)” and the half-maximal effective concentration (EC50) is less than 1000 nM. Besides, the ring closure, yield after HPLC (from Cc1cccc(C)c1-c1nc(NS(=O)(=O)c2cccc(C(=O)O)c2)nc(OC[C@@H](CC2(C(F)(F)F)CC2)NC2CC3(CC3)C2)c1C, amide bond, 13-membered ring, HATU/DIEA, DMF, 14.4 mM, 25.0 °C, 23.0 h) is 44%.
Turning to `Cc1cccc(C)c1-c1nc2nc(c1C(F)(F)F)OC[C@@H](CC(C)C)N(C1CC3(CC3)C1)C(=O)c1cccc(c1)S(=O)(=O)N2` [Compound 162, (11R)-6-(2,6-dimethylphenyl)-11-isobutyl-2,2-dioxo-12-spiro[2.3]hexan-5-yl-7-(trifluoromethyl)-9-oxa-2λ^6-thia-3,5,12,19-tetrazatricyclo[12.3.1.14,8]nonadeca-1(18),4(19),5,7,14,16-hexaen-13-one], on CFTR [3], the “Ent. B Max Activity” value was “+++ (+++ is >60%)” and the EC50 was less than 1000 nM. Where the note is “from Cc1cccc(C)c1-c1nc(NS(=O)(=O)c2cccc(C(=O)O)c2)nc(OC[C@@H](CC(C)C)NC2CC3(CC3)C2)c1C(F)(F)F, amide bond, 13-membered ring, HATU/TEA, DMF, 11.7 mM, 16.0 h”, this compound came in with a ring closure, yield after HPLC of 69%.
